Test results published in ChEMBL document CHEMBL5725933, “Amino compounds for treatment of complement mediated disorders” (2017).

Molecular target: Complement factor D (Homo sapiens, UniProt P00746)
Experiment: Factor D Assay: Human factor D (purified from human serum, Complement Technology, Inc.) at 80 nM final concentration is incubated with test compound at various concentrations for 5 minutes at room temperature in 50 mM Tris, 1M NaCl, pH 7.5. A synthetic substrate Z-L-Lys-SBz1 and DTNB (Ellman's reagent) are added to final concentrations of 100 μM each. The increase in color is recorded at OD405 nm in a microplate in kinetic mode over 30 minutes with 30 second time points in a spectrofluorimeter. IC50 values are calculated by non-linear regression from the percentage of inhibition of complement factor D activity as a function of test compound concentration.

Complement factor D, sequence (P00746 whole entry): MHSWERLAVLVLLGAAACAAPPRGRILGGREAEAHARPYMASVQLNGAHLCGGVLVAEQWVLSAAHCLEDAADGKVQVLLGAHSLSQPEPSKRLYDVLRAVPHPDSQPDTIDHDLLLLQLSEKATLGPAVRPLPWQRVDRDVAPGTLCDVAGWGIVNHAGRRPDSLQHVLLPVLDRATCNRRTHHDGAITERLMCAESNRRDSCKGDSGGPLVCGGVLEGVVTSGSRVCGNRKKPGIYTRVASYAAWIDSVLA

CC(=O)c1cn(CC(=O)N2C[C@H](F)C[C@H]2C(=O)Nc2cccc(Br)n2)c2ccc(Nc3cncc(F)c3)cc12
IC50: < 1000 nM
